The term IC50 denotes the midpoint of a concentration-inhibition curve.

In brackets after ≈: the same amount, converted by molar mass.

This passage reports IC50 results from patent US8586719B2, “Triterpenes for modulating gene expression and cell membrane, and as antiprotozoal agents” (Pacific Arrow Limited, priority 2005, dated 2013).

The experiment relates to (bladder) TB9 cells. The experiment is described as follows: Anti-cancer activity (MTT assay), bladder TB9 cells. In kind it is cell-based. The note with it: Homo sapiens. The source says: (Our purification methods and biological assays including the MTT assay in International Application No. PCT/US05/31900, filed Sep. 7, 2005, U.S. Ser. No. 11/289,142, filed Nov. 28, 2005, and U.S. Ser. No. 11/131,551, filed May 17, 2005, and PCT/US2008/002086, 1188-ALA-PCT, filed Feb. 15, 2008, the contents of which are incorporated herein by reference)
Experiment details of herb extraction, analysis of extract components by HPLC, determination of the cell-growth activity effected by Xanifolia Y with cells derived from different human organs using MTT Assay, purification of the bioactive components from plant extract, fractionation of plant extracts with FPLC, isolation of component Ys with preparative HPLC, determination of the chemical structure, cell experiments and animal studying are disclosed in PCT/US05/31900, U.S. Ser. No. 11/289,142, U.S. Serial 10/906,303, U.S. Ser. No. 11/131,551 and U.S. Ser. Nos. 11/683,198, filed on Mar. 7, 2007, PCT/US2007/077273, filed Aug. 30, 2007, U.S. Ser. No. 60/890,380, filed on Feb. 16, 2007, U.S. Nos. 60/947,705, filed on Jul. 3, 2007, PCT/US2008/002086, 1188-ALA-PCT, filed Feb. 15, 2008, the contents of which are incorporated herein by reference. Experiments 1-23 of PCT/US2008/002086, 1188-ALA-PCT, filed Feb. 15, 2008 are incorporated herein by reference.
In general terms: Tetrazolium dyes change colour on reduction, which living cells bring about.

Compound `C/C=C(/C)C(=O)O[C@H]1[C@H](OC(=O)/C(C)=C\C)[C@@]2(CO)C(CC1(C)C)C1=CCC3[C@@]4(C)CC[C@H](O[C@@H]5OC(C(=O)O)[C@@H](O)[C@@H](O[C@@H]6O[C@@H](CO)[C@@H](O)C6O)C5O[C@@H]5OC(CO)[C@H](O)[C@@H](O)C5O)C(C)(C)C4CC[C@@]3(C)[C@]1(C)[C@@H](O)[C@H]2O` (stereo partly drawn) [Y, 3-O-[β-D-galactopyranosyl(1→2)]-α-L-arabinofuranosy (1→3)-β-D-glucuronopyranosyl-21,22-O-diangeloyl-3β, 15α, 16α, 21β, 22α, 28-hexahydroxyolean-12-ene] yielded an IC50 of 5 µg/mL (≈ 4.38 µM).
